These results are taken from article PMC5791972 (PLoS ONE, 2018).

Read-outs that look alike come from different tables or passages of the source.

One assay has as its target Kv1.5 (Homo sapiens, UniProt P22460). The experiment in a line: Ion channel selectivity patch clamp. Format: cell-based. The following applies: Voltage (+40 mV).
In the next assay the target is T1, α2C (h) (Homo sapiens, UniProt P18825).
T1 construct: host or cells: CHO cells
T1 sequence (P18825 1-462): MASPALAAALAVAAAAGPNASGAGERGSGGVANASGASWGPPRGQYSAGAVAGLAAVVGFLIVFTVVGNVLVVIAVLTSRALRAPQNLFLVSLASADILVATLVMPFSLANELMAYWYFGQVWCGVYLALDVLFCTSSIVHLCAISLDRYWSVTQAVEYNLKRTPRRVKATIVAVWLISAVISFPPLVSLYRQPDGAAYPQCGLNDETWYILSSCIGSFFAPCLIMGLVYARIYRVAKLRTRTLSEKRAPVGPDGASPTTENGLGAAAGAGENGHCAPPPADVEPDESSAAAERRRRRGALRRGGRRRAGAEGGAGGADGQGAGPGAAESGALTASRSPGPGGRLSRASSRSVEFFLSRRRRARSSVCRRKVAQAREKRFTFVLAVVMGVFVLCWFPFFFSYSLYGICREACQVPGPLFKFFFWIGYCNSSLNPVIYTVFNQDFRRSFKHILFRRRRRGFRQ
The class given is binding. The following applies: 1 h.

For the next assay, the target named is CCK1 (CCKA) (h) (Homo sapiens, UniProt P32238). The class given is binding. The note with it: 1.0E-06 M.
CCK1 (CCKA) (h), sequence (P32238 whole entry): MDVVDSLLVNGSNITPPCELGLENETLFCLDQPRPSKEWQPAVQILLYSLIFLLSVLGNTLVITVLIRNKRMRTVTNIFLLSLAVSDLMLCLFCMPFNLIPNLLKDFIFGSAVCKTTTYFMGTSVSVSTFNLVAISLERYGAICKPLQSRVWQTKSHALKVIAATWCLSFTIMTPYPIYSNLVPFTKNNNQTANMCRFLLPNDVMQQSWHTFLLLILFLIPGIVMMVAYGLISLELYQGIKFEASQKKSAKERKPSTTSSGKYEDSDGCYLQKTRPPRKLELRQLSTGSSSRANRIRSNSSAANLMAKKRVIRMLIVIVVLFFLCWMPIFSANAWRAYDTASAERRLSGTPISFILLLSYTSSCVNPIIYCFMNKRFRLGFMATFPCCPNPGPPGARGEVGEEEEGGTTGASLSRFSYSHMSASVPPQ
A further assay concerns the target T2, AT1 (h) (Homo sapiens, UniProt P30556).
T2 construct: host or cells: HEK-293 cells
T2 sequence (P30556 1-359): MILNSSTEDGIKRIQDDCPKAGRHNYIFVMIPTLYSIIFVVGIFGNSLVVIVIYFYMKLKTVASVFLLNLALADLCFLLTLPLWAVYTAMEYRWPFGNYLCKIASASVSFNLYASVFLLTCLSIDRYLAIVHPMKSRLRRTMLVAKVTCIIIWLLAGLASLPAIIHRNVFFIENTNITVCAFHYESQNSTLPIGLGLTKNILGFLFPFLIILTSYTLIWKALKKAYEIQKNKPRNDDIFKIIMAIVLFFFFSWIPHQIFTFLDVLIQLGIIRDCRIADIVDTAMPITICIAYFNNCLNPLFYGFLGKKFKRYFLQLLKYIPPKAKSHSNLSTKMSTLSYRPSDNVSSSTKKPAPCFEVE
Format: binding. The note with it: 1.0E-06 M.

The target of the next assay is M3 (h) (Homo sapiens, UniProt P20309). The experiment in a line: biochemical.
M3 (h), sequence (P20309 whole entry): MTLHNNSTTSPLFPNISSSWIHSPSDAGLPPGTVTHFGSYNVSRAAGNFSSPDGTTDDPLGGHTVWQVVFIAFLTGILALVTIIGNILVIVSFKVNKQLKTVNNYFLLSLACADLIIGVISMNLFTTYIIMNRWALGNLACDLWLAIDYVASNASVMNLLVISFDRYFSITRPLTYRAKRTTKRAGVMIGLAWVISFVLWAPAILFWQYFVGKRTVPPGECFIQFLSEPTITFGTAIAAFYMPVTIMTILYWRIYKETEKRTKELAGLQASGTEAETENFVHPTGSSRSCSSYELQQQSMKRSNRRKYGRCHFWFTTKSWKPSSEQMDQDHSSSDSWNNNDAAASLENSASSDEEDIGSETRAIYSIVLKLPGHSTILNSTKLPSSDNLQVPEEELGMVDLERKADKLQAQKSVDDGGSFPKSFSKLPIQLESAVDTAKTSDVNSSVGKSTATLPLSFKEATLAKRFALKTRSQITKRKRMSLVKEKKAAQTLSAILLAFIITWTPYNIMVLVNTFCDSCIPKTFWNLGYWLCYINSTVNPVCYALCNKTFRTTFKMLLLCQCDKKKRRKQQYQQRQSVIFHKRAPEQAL
Another assay relates to TR (TH). Format: binding, rat. The following applies: 1.0E-06 M.
A further assay deals with T3, M2 (h) (Homo sapiens, UniProt P08172).
T3 sequence (P08172 1-466): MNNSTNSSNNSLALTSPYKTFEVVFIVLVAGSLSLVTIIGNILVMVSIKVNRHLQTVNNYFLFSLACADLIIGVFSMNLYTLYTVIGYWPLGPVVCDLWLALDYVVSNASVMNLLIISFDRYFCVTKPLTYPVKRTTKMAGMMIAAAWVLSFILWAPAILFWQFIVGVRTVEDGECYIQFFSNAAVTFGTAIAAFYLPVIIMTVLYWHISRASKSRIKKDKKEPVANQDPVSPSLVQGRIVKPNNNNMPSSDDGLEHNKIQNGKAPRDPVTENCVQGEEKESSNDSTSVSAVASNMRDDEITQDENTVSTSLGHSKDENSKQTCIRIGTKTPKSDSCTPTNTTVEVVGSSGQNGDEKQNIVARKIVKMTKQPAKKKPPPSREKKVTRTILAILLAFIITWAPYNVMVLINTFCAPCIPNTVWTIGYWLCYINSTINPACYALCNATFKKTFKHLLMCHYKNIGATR
The experiment in a line: biochemical.

Another assay has as its target T4, ETA (h) (Homo sapiens, UniProt P25101).
T4 construct: host or cells: CHO cells
T4 sequence (P25101 21-427): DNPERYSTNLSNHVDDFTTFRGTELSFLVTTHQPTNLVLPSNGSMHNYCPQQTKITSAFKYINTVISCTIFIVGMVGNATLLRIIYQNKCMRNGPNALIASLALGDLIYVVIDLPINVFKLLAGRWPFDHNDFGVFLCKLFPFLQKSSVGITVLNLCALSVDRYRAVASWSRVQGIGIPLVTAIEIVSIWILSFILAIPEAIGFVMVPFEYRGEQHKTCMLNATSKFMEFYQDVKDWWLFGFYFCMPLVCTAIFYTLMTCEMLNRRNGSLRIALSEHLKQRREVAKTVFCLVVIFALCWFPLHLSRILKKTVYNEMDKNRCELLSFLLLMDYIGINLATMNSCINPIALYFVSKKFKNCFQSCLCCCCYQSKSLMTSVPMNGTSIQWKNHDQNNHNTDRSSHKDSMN
The class given is binding. The note with it: 1.0E-06 M.

For another assay, the target named is Lyn A kinase (h) (Homo sapiens, UniProt P07948). The experiment in a line: biochemical. The following applies: 1.0E-06 M.
Lyn A kinase (h), sequence (P07948 whole entry): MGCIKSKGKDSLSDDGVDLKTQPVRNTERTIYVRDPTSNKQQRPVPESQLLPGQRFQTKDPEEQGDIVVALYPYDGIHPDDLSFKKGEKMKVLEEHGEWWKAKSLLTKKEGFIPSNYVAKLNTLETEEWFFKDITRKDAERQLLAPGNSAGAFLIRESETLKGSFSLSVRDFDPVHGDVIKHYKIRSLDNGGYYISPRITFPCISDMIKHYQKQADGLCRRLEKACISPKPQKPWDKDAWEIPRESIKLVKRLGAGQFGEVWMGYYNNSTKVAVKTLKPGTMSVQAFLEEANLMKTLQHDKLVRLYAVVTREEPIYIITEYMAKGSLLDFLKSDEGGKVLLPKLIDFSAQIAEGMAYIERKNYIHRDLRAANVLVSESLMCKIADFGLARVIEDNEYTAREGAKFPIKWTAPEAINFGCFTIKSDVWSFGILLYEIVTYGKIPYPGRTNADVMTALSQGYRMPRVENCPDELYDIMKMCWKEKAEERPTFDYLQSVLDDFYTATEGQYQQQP
Assay [1] has as its target Ca2+ channel (L, diltiazem site) (benzothiazepines) (Rattus norvegicus, UniProt P22002). The class given is binding.
For another assay, the target named is β2 (h) (Homo sapiens, UniProt P07550). The class given is binding. The note with it: 1.0E-06 M.
β2 (h), sequence (P07550 whole entry): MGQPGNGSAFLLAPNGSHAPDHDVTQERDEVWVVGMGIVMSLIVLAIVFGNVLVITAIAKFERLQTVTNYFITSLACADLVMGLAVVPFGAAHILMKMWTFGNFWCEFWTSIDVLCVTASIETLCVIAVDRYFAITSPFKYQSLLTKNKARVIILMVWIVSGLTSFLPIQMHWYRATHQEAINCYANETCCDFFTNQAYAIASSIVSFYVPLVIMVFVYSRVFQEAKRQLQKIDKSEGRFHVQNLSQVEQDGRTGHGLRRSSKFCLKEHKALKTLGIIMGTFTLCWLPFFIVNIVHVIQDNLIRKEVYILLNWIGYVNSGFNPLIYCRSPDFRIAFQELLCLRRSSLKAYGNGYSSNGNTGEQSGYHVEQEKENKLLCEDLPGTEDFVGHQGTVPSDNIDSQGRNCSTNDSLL

Ca2+ channel (L, diltiazem site) (benzothiazepines), sequence (P22002 whole entry): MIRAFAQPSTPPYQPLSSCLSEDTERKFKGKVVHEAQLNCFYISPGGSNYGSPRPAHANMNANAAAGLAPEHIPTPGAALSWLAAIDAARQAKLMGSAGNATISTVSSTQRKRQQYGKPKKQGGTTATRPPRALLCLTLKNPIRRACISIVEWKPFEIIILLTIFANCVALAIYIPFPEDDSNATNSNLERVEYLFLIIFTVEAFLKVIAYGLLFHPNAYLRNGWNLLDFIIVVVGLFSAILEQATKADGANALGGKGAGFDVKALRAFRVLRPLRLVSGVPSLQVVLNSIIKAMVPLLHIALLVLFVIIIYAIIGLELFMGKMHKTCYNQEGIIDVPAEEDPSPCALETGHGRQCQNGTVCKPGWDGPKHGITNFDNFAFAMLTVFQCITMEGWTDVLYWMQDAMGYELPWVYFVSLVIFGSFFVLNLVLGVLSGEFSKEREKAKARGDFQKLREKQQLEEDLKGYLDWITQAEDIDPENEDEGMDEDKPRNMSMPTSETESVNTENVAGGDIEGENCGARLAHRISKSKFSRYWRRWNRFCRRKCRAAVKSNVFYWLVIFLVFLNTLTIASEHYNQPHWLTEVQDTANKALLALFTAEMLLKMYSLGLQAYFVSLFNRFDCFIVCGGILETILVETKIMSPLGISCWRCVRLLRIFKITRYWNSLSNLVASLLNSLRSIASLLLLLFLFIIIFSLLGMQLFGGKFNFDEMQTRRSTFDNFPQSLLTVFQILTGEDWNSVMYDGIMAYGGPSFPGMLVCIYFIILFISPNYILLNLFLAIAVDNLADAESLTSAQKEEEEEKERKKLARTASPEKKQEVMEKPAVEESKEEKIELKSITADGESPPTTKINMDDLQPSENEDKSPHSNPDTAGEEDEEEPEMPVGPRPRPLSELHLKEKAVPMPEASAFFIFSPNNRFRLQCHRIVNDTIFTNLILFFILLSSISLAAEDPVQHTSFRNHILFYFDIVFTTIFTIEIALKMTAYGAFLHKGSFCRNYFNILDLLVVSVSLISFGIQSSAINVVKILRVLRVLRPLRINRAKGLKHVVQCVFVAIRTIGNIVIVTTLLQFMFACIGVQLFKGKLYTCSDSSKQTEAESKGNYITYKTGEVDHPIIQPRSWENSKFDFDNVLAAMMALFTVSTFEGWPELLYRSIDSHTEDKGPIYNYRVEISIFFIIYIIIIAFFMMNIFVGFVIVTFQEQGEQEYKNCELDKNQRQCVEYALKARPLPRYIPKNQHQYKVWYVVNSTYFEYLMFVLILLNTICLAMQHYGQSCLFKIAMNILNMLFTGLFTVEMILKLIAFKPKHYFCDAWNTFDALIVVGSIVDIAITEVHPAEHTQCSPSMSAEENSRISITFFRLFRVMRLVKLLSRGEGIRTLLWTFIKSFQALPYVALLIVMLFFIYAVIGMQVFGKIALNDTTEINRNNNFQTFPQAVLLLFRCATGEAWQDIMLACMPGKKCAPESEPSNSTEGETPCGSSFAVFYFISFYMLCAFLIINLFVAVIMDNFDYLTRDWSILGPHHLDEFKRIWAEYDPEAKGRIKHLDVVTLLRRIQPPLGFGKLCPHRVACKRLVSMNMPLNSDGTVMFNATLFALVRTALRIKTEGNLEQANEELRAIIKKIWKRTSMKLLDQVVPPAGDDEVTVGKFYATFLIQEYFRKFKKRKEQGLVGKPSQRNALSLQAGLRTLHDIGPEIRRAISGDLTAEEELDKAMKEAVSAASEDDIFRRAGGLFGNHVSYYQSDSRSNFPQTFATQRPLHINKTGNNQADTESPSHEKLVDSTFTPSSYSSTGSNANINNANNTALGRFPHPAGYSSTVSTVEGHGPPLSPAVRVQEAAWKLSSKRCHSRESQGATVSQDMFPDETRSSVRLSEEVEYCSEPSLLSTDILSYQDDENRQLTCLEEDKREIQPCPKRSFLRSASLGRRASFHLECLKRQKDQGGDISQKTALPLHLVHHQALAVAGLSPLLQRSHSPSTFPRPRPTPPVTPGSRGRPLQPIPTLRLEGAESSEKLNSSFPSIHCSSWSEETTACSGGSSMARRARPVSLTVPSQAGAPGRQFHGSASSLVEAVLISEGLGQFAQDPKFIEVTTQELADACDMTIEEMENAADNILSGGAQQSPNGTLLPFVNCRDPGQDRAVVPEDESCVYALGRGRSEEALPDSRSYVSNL
Kv1.5, sequence (P22460 whole entry): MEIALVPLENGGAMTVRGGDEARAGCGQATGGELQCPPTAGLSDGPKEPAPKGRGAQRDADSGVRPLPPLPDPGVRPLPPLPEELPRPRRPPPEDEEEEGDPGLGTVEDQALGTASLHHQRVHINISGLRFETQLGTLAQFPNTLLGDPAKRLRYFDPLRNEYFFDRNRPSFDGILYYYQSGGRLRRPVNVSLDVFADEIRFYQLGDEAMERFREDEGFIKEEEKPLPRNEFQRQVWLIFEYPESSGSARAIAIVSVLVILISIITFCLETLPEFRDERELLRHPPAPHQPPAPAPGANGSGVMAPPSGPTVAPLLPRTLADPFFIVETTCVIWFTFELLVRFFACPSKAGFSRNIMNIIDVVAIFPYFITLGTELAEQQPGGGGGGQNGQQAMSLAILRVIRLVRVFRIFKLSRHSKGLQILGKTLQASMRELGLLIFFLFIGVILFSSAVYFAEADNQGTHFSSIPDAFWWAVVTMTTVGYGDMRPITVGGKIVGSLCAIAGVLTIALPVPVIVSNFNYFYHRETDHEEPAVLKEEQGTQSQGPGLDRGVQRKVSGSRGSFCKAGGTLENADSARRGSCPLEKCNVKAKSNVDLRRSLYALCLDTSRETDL

`Cn1c(=O)n(CCCO)c(=O)c2c1nc(Oc1cccc(Cl)c1)n2Cc1ccc(Cl)cc1` [HC-070] yielded an IC50 against Kv1.5 of more than 1900 nM. Also, the inhibition at 1 µM on α2C (h) (read-out: % Inhibition 1st) is 7.9%; on α2C (h) (read-out: % Inhibition 2nd), -1%; on α2C (h) (read-out: % Inhibition Mean) it was 3.5%.

As to `Cn1c(=O)n(CCCO)c(=O)c2c1nc(Oc1cccc(OC(F)(F)F)c1)n2Cc1ccc(Cl)cc1` [HC-608], the inhibition at 1 µM at CCK1 (CCKA) (h) (read-out: % Inhibition 1st) was -11.2%; at CCK1 (CCKA) (h) (read-out: % Inhibition 2nd), -0.4%; at CCK1 (CCKA) (h) (read-out: % Inhibition Mean), -5.8%; on AT1 (h) (read-out: % Inhibition 1st), 0.5%; on AT1 (h) (read-out: % Inhibition 2nd), -6%; at AT1 (h) (read-out: % Inhibition Mean), -2.7%. In addition, the inhibition at 1 µM was -9% on M3 (h) (read-out: % Inhibition 1st); -7.5% at M3 (h) (read-out: % Inhibition 2nd); -8.2% on M3 (h) (read-out: % Inhibition Mean); -15.9% at M2 (h) (read-out: % Inhibition 1st); -14.2% on M2 (h) (read-out: % Inhibition 2nd); -15% on M2 (h) (read-out: % Inhibition Mean). Besides, the inhibition at 1 µM at ETA (h) (read-out: % Inhibition 1st) is -33.9%; at ETA (h) (read-out: % Inhibition 2nd) it was 6.7%; at ETA (h) (read-out: % Inhibition Mean), -13.6%; on Lyn A kinase (h) (read-out: % Inhibition 1st), 13.7%; at Lyn A kinase (h) (read-out: % Inhibition 2nd) it was 5.5%; at Lyn A kinase (h) (read-out: % Inhibition Mean), 9.6%. Further, the inhibition at 1 µM was -1.9% on β2 (h) (read-out: % Inhibition 1st), 0.5% on β2 (h) (read-out: % Inhibition 2nd) and -0.7% at β2 (h) (read-out: % Inhibition Mean). For the same compound, the results for the “% Inhibition 1st” value (in the assay with TR (TH); in assay [1]) were 3.2% and -1.9%, respectively. The “% Inhibition 2nd” value with TR (TH) was -1.6%; in assay [1] it was 8.8%. In addition, the “% Inhibition Mean” value with TR (TH) worked out at 0.8%; in assay [1], 3.4%.

As a reminder, the IC50 is the concentration that gives 50% inhibition. High values mean a need for much substance, low ones inhibition by little substance. As a reminder, the inhibition is the change of the read-out against control, counted positive when it falls.
